Results taken from patent US9051317B2, “Azaindoles as respiratory syncytial virus antiviral agents” (JANSSEN SCIENCES IRELAND UC, priority 2010, dated 2015).
Like-named read-outs stand apart in the source and are kept apart here.

How the values were obtained:
[1] = system: rgRSV224 virus; assay: microbe, parasite or virus in culture; type: cell-based, respiratory syncytial virus (RSV); conditions: for SI CC50/EC50: selectivity index, CC50 (HeLa cytotoxicity) / EC50 (rgRSV224); for EC50: read-out: WT activity EC50
Description: (§1) Black 96-well clear-bottom microtiter plates (Corning, Amsterdam, The Netherlands) were filled in duplicate using a customized robot system with serial 4-fold dilutions of compound in a final volume of 50 μl culture medium [RPMI medium without phenol red, 10% FBS, 0.04% gentamycin (50 mg/mL) and 0.5% DMSO]. Then, 100 μl of a HeLa cell suspension (5×10^4 cells/mL) in culture medium was added to each well followed by the addition of 50 μl rgRSV224 (MOI=0.02) virus in culture medium using a multidrop dispenser (Thermo Scientific, Erembodegem, Belgium). rgRSV224 virus is an engineered virus that includes an additional GFP gene (Hallak et al, 2000) and was in-licensed from the NIH (Bethesda, Md., USA). Medium, virus- and mock-infected controls were included in each test. Cells were incubated at 37° C. in a 5% CO2 atmosphere. Three days post-virus exposure, viral replication was quantified by measuring GFP expression in the cells by a MSM laser microscope (Tibotec, Beerse, Belgium). The EC50 was defined as the 50% inhibitory concentration for GFP expression. In parallel, compounds were incubated for three days in a set of white 96-well microtitier plates (Corning) and the cytotoxicity of compounds in HeLa cells was determined by measuring the ATP content of the cells using the ATPlite kit (PerkinElmer, Zaventem, Belgium) according to the manufacturer's instructions. The CC50 was defined as the 50% concentration for cytotoxicity.

[2] = Cytotoxicity in HeLa cells, ATP content (ATPlite kit); type: cell-based; conditions: human, Table 1, three days incubation, read-out: Toxicity CC50
Description: as §1

[3] = human respiratory syncytial virus, HeLa, 72 h
[4] = Table 2, rgRSV224 in HeLa cells, MOI 0.02, three days post-virus exposure, GFP expression

SMILES | SI CC50/EC50 ([1]; Table 3) | EC50 [1, 3] [nM] | EC50 [1, 4] [nM] | SI CC50/EC50 ([1]; Table 2) | CC50 at 3 days [2] [nM]
O=c1n(Cc2cc3nc(Cl)ccc3n2CCCCF)c2cnc(Cl)cc2n1C1CC1 [Compound P44] | 620 | 17.9 |  |  | 
O=c1n(Cc2cc3cnccc3n2CCCC(F)(F)F)c2cnccc2n1C1CC1 [Compound P21] |  |  | 0.247 | >405210 | 
O=c1n(Cc2cc3nc(Cl)ccc3n2CCCCF)c2cc(F)ccc2n1CC(F)(F)F [Compound P47] |  |  | 138 | >720 | 
O=c1n(Cc2cc3ccncc3n2CCCCO)c2cnccc2n1C1CC1 [Compound P4, 1-Cyclopropyl-3-{[1-(4-hydroxybutyl)-1H-pyrrolo[2,3-c]pyridin-2-yl]methyl}-1,3-dihydro-2H-imidazo[4,5-c]pyridin-2-one] |  | 129 |  |  | > 9840
O=c1n(Cc2cc3nc(Cl)ccc3n2CCCCF)c2cnccc2n1C1CC1 [Compound P42, 3-((5-chloro-1-(4-fluorobutyl)-1H-pyrrolo[3,2-b]pyridin-2-yl)methyl)-1-cyclopropyl-1H-imidazo[4,5-c]pyridin-2(3H)-one] |  | 2.84 |  | 17031 | 
O=c1n(Cc2cc3cc(Cl)ncc3n2CCCC(F)(F)F)c2cc(F)ccc2n1C1CC1 [Compound P16] |  |  | 39.8 | >2730 | 
O=c1n(Cc2cc3nc(Cl)ccc3n2CCCCO)c2cnccc2n1CC(F)(F)F [Compound P50] |  |  | 10.1 | >4946 | 
CC(C)CCn1c(Cn2c(=O)n(C3CC3)c3ccccc32)cc2nc(Cl)ccc21 [Compound P39] |  |  | 129 | >388 | 
O=c1n(Cc2cc3ncccc3n2CCCCO)c2cnccc2n1C1CC1 [Compound P5, 1-Cyclopropyl-3-{[1-(4-hydroxybutyl)-1H-pyrrolo[3,2-b]pyridin-2-yl]methyl}-1,3-dihydro-2H-imidazo[4,5-c]pyridin-2-one] |  | 160 |  |  | > 98400
O=c1n(Cc2c(F)c3cnccc3n2CCCC(F)(F)F)c2cnccc2n1C1CC1 [Compound P23] |  |  | 29.3 | >3416 | 
N#CCCCn1c(Cn2c(=O)n(C3CC3)c3ccncc32)cc2nc(Cl)ccc21 [Compound P53] |  |  | 15.8 | >6232 | 
CC(C)(C)C(=O)OCCCCn1c(Cn2c(=O)n(C3CC3)c3ccncc32)cc2nc(O)ccc21 [Compound P9, 4-{2-[(1-Cyclopropyl-2-oxo-1,2-dihydro-3H-imidazo[4,5-c]pyridin-3-yl)methyl]-5-hydroxy-1H-pyrrolo[3,2-b]pyridin-1-yl}butyl 2,2-dimethylpropanoate] |  | > 9840 |  |  | > 9840
O=c1n(Cc2cc3nc(Cl)ccc3n2CCCCO)c2cnccc2n1C1CC1 [Compound P2, 3-{[5-Chloro-1-(4-hydroxybutyl)-1H-pyrrolo[3,2-b]pyridin-2-yl]methyl}-1-cyclopropyl-1,3-dihydro-2H-imidazo[4,5-c]pyridin-2-one] |  | 15.6 |  |  | > 9840
O=c1n(Cc2cc3ncccc3n2CCCCF)c2cnccc2n1C1CC1 [Compound P45] |  |  | 42.9 | >2332 | 
O=c1n(Cc2cc3cc(Cl)ncc3n2CCCC(F)(F)F)c2cnccc2n1C1CC1 [Compound P12] |  |  | 2.38 | >10526 | 
CC(C)CCn1c(Cn2c(=O)n(C3CC3)c3ccncc32)cc2ncccc21 [Compound P3, 1-Cyclopropyl-3-{[1-(3-methylbutyl)-1H-pyrrolo[3,2-b]pyridin-2-yl]methyl}-1,3-dihydro-2H-imidazo[4,5-c]pyridin-2-one] |  | 62.9 |  |  | 68000
CC(C)CCn1c(Cn2c(=O)n(C3COC3)c3ccncc32)cc2nc(Cl)ccc21 [Compound P34] |  |  | 35 | >2856 | 
CS(=O)(=O)CCCn1c(Cn2c(=O)n(CC(F)(F)F)c3ccc(F)cc32)c(Br)c2cnccc21 [Compound P29] |  |  | 63.5 | 307 | 
CS(=O)(=O)CCCn1c(Cn2c(=O)n(CC(F)(F)F)c3ccncc32)cc2nc(Cl)ccc21 [Compound P52] |  |  | 0.84 | >119028 | 
CC(C)CCn1c(Cn2c(=O)n(C3CC3)c3ccc(F)cc32)cc2nc(Cl)ccc21 [Compound P38] |  |  | 32.8 | 1510 | 
O=c1n(Cc2cc3cc(Cl)ncc3n2CCCCF)c2cnccc2n1CC(F)(F)F [Compound P15] |  |  | 1.58 | 51626 | 

SMILES | SI CC50/EC50 ([1]; Table 3) | EC50 [1, 3] [nM] | EC50 [1, 4] [nM] | SI CC50/EC50 ([1]; Table 2) | CC50 at 3 days [2] [nM]
CS(=O)(=O)CCCn1c(Cn2c(=O)n(C3CC3)c3ccc(F)cc32)cc2nc(Cl)ccc21 [Compound P37] |  |  | 22.3 | >4479 | 
O=c1n(Cc2cc3nc(Cl)ccc3n2CCCC(F)(F)F)c2ccccc2n1C1CC1 [Compound P43] |  |  | 69.2 | 1291 | 
CS(=O)(=O)CCCn1c(Cn2c(=O)n(CC(F)(F)F)c3ccc(F)cc32)cc2cnccc21 [Compound P30] |  |  | 0.614 | >162986 | 
O=c1n(Cc2cc3cc(Cl)ncc3n2CCCCF)c2cnccc2n1C1CC1 [Compound P11, 3-((5-chloro-1-(4-fluorobutyl)-1H-pyrrolo[2,3-c]pyridin-2-yl)methyl)-1-cyclopropyl-1H-imidazo[4,5-c]pyridin-2(3H)-one] |  | 5.33 |  | >9387 | 
Cc1c(Cn2c(=O)n(C3CC3)c3ccncc32)n(CCCC(F)(F)F)c2ccncc12 [Compound P25] |  |  | 1.35 | >73885 | 
O=c1n(Cc2cc3cc(Cl)ncc3n2CCCC(F)(F)F)c2cnccc2n1CC(F)(F)F [Compound P13] |  |  | 0.938 | >106591 | 
CC(C)CCn1c(Cn2c(=O)n(C3CC3)c3ccncc32)cc2cnccc21 [Compound P20] |  |  | 0.28 | 294002 | 
O=c1n(Cc2cc3cnccc3n2CCCC(F)(F)F)c2c(F)nccc2n1C1CC1 [Compound P24] | >589061 | 0.17 |  |  | 
O=c1n(Cc2c(Cl)c3cnccc3n2CCCC(F)(F)F)c2cnccc2n1C1CC1 [Compound P22] |  |  | 5 | >20007 | 
O=c1n(Cc2cc3cc(Cl)ncc3n2CCCC(F)(F)F)c2cc(F)ccc2n1CC(F)(F)F [Compound P14] |  |  | 17.2 | >5823 | 
O=c1n(Cc2cc3cnccc3n2CCCCF)c2cnccc2n1C1CC1 [Compound P19] |  |  | 0.536 | >186574 | 
O=c1n(Cc2cc3nc(Cl)ccc3n2CCCC(F)(F)F)c2cnccc2n1CC(F)(F)F [Compound P49] |  |  | 2.1 | >34306 | 
O=c1n(Cc2c(I)c3cnccc3n2CCCC(F)(F)F)c2cnccc2n1C1CC1 [Compound P26] |  |  | 2.35 | 21638 | 
CS(=O)(=O)CCCn1c(Cn2c(=O)n(C3CC3)c3ccncc32)cc2cnccc21 [Compound P18] |  |  | 0.98 | >102089 | 
CS(=O)(=O)CCCn1c(Cn2c(=O)n(C3CC3)c3ccncc32)cc2nc(Cl)ccc21 [Compound P33] |  |  | 5.76 | >17372 | 
O=c1n(Cc2cc3nc(Cl)ccc3n2CCCC(F)(F)F)c2cnccc2n1C1CC1 [Compound P40] |  |  | 2.7 | >37045 | 
O=c1n(Cc2cc3nc(Cl)ccc3n2CCCCF)c2cnccc2n1CC(F)(F)F [Compound P48] |  |  | 7.36 | 10490 | 
O=c1n(Cc2cc3nc(C(F)(F)F)ccc3n2CCCCF)c2cnccc2n1C1CC1 [Compound P46] |  |  | 132 | >755 | 
CC(C)CCn1c(Cn2c(=O)n(C3CC3)c3ccncc32)cc2nc(Cl)ccc21 [Compound P32] |  |  | 7.77 | >1286 | 
CS(=O)(=O)CCCn1c(Cn2c(=O)n(C3COC3)c3ccncc32)cc2nc(Cl)ccc21 [Compound P36] |  |  | 6.81 | >14674 | 
